Test results: ChEMBL document CHEMBL1157531, “Sinulaflexiolides A-K, cembrane-type diterpenoids from the chinese soft coral Sinularia flexibilis” (J Nat Prod, 2008)

Experiment: Cytotoxicity against human […] cells
Format: functional, cell-based

| Compound | IC50 |
| --- | --- |
| C=C1C(=O)O[C@]2(C)CC[C@@H]1C[C@H]1O[C@@]1(C)CC[C@H](OC(C)=O)[C@@]1(C)CC[C@@H]2O1 | > 10 µg/mL |
| C=C1C(=O)O[C@@H]2C[C@H]1CC/C(C)=C/CC/C(C)=C/CC[C@]2(C)O | > 10 µg/mL |
| C=C1C(=O)O[C@]2(C)CC[C@@H]1C[C@@H](O)[C@@](C)(O)CC/C=C(\C)CC[C@@H]2O [CAPILLOLIDE] | > 10 µg/mL |
| C=C1C(=O)O[C@]2(C)CC[C@@H]1C[C@H](O)/C(C)=C/C/C=C(\C)CC[C@@H]2OC(C)=O [DENDRONPHOLIDE A] | > 10 µg/mL |
| C=C(C(=O)OC)[C@@H]1CC[C@@](C)(O)[C@@H]2CC[C@@](C)(O2)[C@@H](OC(C)=O)CC[C@]2(C)O[C@@H]2C1 [SINULAFLEXIOLIDE E] | 8.5 µM |
| C=C(C(=O)OCC)[C@@H]1CC[C@@](C)(O)[C@@H]2CC[C@@](C)(O2)[C@@H](OC(C)=O)CC[C@]2(C)O[C@@H]2C1 [SINULAFLEXIOLIDE F] | 0.12 µM |
